PubChem BioAssay (NCI)
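Results reflect a 48-hour exposure of cells in 96-well plates to compound at five concentrations. At the GI50, growth is halved. TGI: concentration producing complete growth inhibition.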

Legend:
Experiment in all cases: inhibition of tumour cell growth, NCI panel, 48 h; in the data active = GI50 below about 0.43 µM; inactive = the rest
786-0 renal = test system: 786-0 renal
A498 renal = test system: A498 renal
A549 NSCLC = test system: A549 NSCLC
ACHN renal = test system: ACHN renal
BT-549 breast = test system: BT-549 breast
CAKI-1 renal = test system: CAKI-1 renal
CCRF-CEM leukemia = test system: CCRF-CEM leukemia
COLO 205 colon = test system: COLO 205 colon
DU-145 prostate = test system: DU-145 prostate
EKVX NSCLC = test system: EKVX NSCLC
HCC-2998 colon = test system: HCC-2998 colon
HCT-116 colon = test system: HCT-116 colon
HCT-15 colon = test system: HCT-15 colon
HL-60(TB) leukemia = test system: HL-60(TB) leukemia
HOP-62 NSCLC = test system: HOP-62 NSCLC
HOP-92 NSCLC = test system: HOP-92 NSCLC
HS 578T breast = test system: HS 578T breast
HT29 colon = test system: HT29 colon
K-562 leukemia = test system: K-562 leukemia
KM12 colon = test system: KM12 colon
LOX IMVI melanoma = test system: LOX IMVI melanoma
M14 melanoma = test system: M14 melanoma
MALME-3M melanoma = test system: MALME-3M melanoma
MCF7 breast = test system: MCF7 breast
MDA-MB-231 breast = test system: MDA-MB-231 breast
MDA-MB-435 = test system: MDA-MB-435
MOLT-4 leukemia = test system: MOLT-4 leukemia
NCI-H226 lung = test system: NCI-H226 lung
NCI-H23 lung = test system: NCI-H23 lung
NCI-H460 lung = test system: NCI-H460 lung
NCI-H522 lung = test system: NCI-H522 lung
NCI/ADR-RES ovarian = test system: NCI/ADR-RES ovarian
OVCAR-3 ovarian = test system: OVCAR-3 ovarian
OVCAR-4 ovarian = test system: OVCAR-4 ovarian
OVCAR-5 ovarian = test system: OVCAR-5 ovarian
OVCAR-8 ovarian = test system: OVCAR-8 ovarian
PC-3 prostate = test system: PC-3 prostate
RPMI-8226 leukemia = test system: RPMI-8226 leukemia
RXF 393 renal = test system: RXF 393 renal
SF-268 CNS = test system: SF-268 CNS
SF-295 CNS = test system: SF-295 CNS
SF-539 CNS = test system: SF-539 CNS
SK-MEL-2 melanoma = test system: SK-MEL-2 melanoma
SK-MEL-28 melanoma = test system: SK-MEL-28 melanoma
SK-MEL-5 melanoma = test system: SK-MEL-5 melanoma
SK-OV-3 ovarian = test system: SK-OV-3 ovarian
SN12C renal = test system: SN12C renal
SNB-19 CNS = test system: SNB-19 CNS
SNB-75 CNS = test system: SNB-75 CNS
SR leukemia = test system: SR leukemia
SW-620 colon = test system: SW-620 colon
T-47D breast = test system: T-47D breast
TK-10 renal = test system: TK-10 renal
U251 CNS = test system: U251 CNS
UACC-257 melanoma = test system: UACC-257 melanoma
UACC-62 melanoma = test system: UACC-62 melanoma
UO-31 renal = test system: UO-31 renal

O=C(N/N=C\c1c(O)ccc2ccccc12)C1CC1
> 100 µM: TGI (786-0 renal) | TGI (A549 NSCLC) | TGI (ACHN renal) | TGI (CCRF-CEM leukemia) | TGI (DU-145 prostate) | TGI (EKVX NSCLC) | TGI (HCC-2998 colon) | TGI (HCT-116 colon) | TGI (HCT-15 colon) | TGI (HL-60(TB) leukemia) | TGI (HOP-92 NSCLC) | TGI (HS 578T breast) | TGI (HT29 colon) | TGI (K-562 leukemia) | TGI (KM12 colon) | TGI (LOX IMVI melanoma) | TGI (MCF7 breast) | TGI (MDA-MB-231 breast) | TGI (MDA-MB-435) | TGI (MOLT-4 leukemia) | TGI (NCI-H23 lung) | TGI (NCI-H460 lung) | TGI (NCI-H522 lung) | TGI (NCI/ADR-RES ovarian) | TGI (OVCAR-4 ovarian) | TGI (OVCAR-5 ovarian) | TGI (OVCAR-8 ovarian) | TGI (PC-3 prostate) | TGI (RPMI-8226 leukemia) | TGI (RXF 393 renal) | TGI (SF-268 CNS) | TGI (SF-539 CNS) | TGI (SK-MEL-2 melanoma) | TGI (SK-MEL-28 melanoma) | TGI (SK-MEL-5 melanoma) | TGI (SN12C renal) | TGI (SNB-19 CNS) | TGI (SR leukemia) | TGI (SW-620 colon) | TGI (T-47D breast) | TGI (TK-10 renal) | TGI (U251 CNS)
22.8 µM: TGI (UACC-62 melanoma)
91.1 µM: TGI (SNB-75 CNS)
46 µM: TGI (OVCAR-3 ovarian)
52 µM: TGI (A498 renal)
97.1 µM: TGI (UACC-257 melanoma)
54 µM: TGI (MALME-3M melanoma)
inactive: GI50 (786-0 renal) 5.16 µM | GI50 (A498 renal) 16.8 µM | GI50 (A549 NSCLC) 7.13 µM | GI50 (ACHN renal) 2820 nM | GI50 (BT-549 breast) 5.78 µM | GI50 (CAKI-1 renal) 1600 nM | GI50 (CCRF-CEM leukemia) 889 nM | GI50 (COLO 205 colon) 11.2 µM | GI50 (DU-145 prostate) 13.4 µM | GI50 (EKVX NSCLC) 2910 nM | GI50 (HCC-2998 colon) 9.8 µM | GI50 (HCT-116 colon) 3.04 µM | GI50 (HCT-15 colon) 1220 nM | GI50 (HL-60(TB) leukemia) 1530 nM | GI50 (HOP-62 NSCLC) 4.34 µM | GI50 (HOP-92 NSCLC) 16.7 µM | GI50 (HS 578T breast) 17.2 µM | GI50 (HT29 colon) 13 µM | GI50 (K-562 leukemia) 3.64 µM | GI50 (KM12 colon) 6.12 µM | GI50 (LOX IMVI melanoma) 1790 nM | GI50 (M14 melanoma) 3.76 µM | GI50 (MALME-3M melanoma) 7.76 µM | GI50 (MCF7 breast) 3.41 µM | GI50 (MDA-MB-231 breast) 7.5 µM | GI50 (MDA-MB-435) 11.6 µM | GI50 (MOLT-4 leukemia) 3.17 µM | GI50 (NCI-H226 lung) 13.1 µM | GI50 (NCI-H23 lung) 5.94 µM | GI50 (NCI-H460 lung) 3000 nM | GI50 (NCI-H522 lung) 5.75 µM | GI50 (NCI/ADR-RES ovarian) 2760 nM | GI50 (OVCAR-3 ovarian) 2200 nM | GI50 (OVCAR-4 ovarian) 2600 nM | GI50 (OVCAR-5 ovarian) 19.6 µM | GI50 (OVCAR-8 ovarian) 3.12 µM | GI50 (PC-3 prostate) 11.7 µM | GI50 (RPMI-8226 leukemia) 7.91 µM | GI50 (RXF 393 renal) 8.91 µM | GI50 (SF-268 CNS) 4.1 µM | GI50 (SF-295 CNS) 2260 nM | GI50 (SF-539 CNS) 4.48 µM | GI50 (SK-MEL-2 melanoma) 18.9 µM | GI50 (SK-MEL-28 melanoma) 17.8 µM | GI50 (SK-MEL-5 melanoma) 3.81 µM | GI50 (SK-OV-3 ovarian) 3.36 µM | GI50 (SN12C renal) 11.7 µM | GI50 (SNB-19 CNS) 12.9 µM | GI50 (SNB-75 CNS) 6.68 µM | GI50 (SR leukemia) 2550 nM | GI50 (SW-620 colon) 6.55 µM | GI50 (T-47D breast) 4.9 µM | GI50 (TK-10 renal) 30.4 µM | GI50 (U251 CNS) 2050 nM | GI50 (UACC-257 melanoma) 3.74 µM | GI50 (UACC-62 melanoma) 3.25 µM | GI50 (UO-31 renal) 863 nM
93.8 µM: TGI (COLO 205 colon)
84.2 µM: TGI (NCI-H226 lung)
8.22 µM: TGI (CAKI-1 renal)
8.23 µM: TGI (SF-295 CNS)
67.2 µM: TGI (SK-OV-3 ovarian)
91.4 µM: TGI (HOP-62 NSCLC)
56 µM: TGI (M14 melanoma)
88.7 µM: TGI (BT-549 breast)
14.9 µM: TGI (UO-31 renal)
